In patent US9162991B2 (University of Ottawa, priority 2007, dated 2015):
“Also recorded” adds a separate entry of the source. Read-outs that look alike come from different tables or passages of the source.

Target: recombinant guinea pig liver TGase (Cavia cutleri (Guinea pig), UniProt P08587)
Assay: biochemical
Type: biochemical
Method: ENZYME INHIBITION BY COMPOUNDS 14a-c, 14l, 15a, 15d-k, 15m-q, 30a, 30r, 30t, 37a and 38a: For enzymology studies of these compounds, recombinant guinea pig liver TGase was expressed in Escherichia coli and effectively purified (Gillet, S. M. F. G. et al J. N., Prot. Exp. & Purif. 2004, 33, 256).
The mode of inhibition was determined for the representative lead compound 14a through non-linear regression of initial rate data to the Michaelis-Menten equation (FIG. 1).
For the ensuing enzymatic tests, recombinant guinea pig liver TGase was expressed in E. Coli and effectively purified.
Kinetic runs were recorded on a Cary 100 BIO UV-Visible spectrophotometer at 405 nm and 25° C., in a buffer composed of 50 mM CaCl2, 50 μM EDTA and 0.1 M MOPS (pH 7.0). All aqueous solutions were prepared using de-ionized water purified from the Millipore BioCell system. […] Factor XIIIa activity was measured using a coupled-enzyme assay (Day, N.; Keillor, J. W. Anal. Biochem. 1999, 274, 141). Factor XIIIa, was added to a final concentration of 0.89 μg/mL to a pH 8.5 solution (0.1 M Tris-HCl, 5 mM CaCl2 and 10 mM DDT) of 0.5 mM β-NADH, 3.3 mM Na-acetyl-L-lysine methyl ester, 10 mM α-ketoglutaric acid sodium salt and 297 μg/mL glutamate dehydrogenase (GDH).

[1] = IC50 (μM), Table 6, value in brackets
[2] = IC50 (μM), class symbol, Table 6, Huisgen [3+2] cycloaddition products
[3] = Table 1, substituent on the cinnamoyl aromatic group, read-out: IC50 (μM), class symbol
[4] = Table 1, value in brackets, read-out: IC50
[5] = Table 3, influence of the acylated moiety, read-out: IC50 (μM), class symbol

recombinant guinea pig liver TGase, sequence (P08587 whole entry): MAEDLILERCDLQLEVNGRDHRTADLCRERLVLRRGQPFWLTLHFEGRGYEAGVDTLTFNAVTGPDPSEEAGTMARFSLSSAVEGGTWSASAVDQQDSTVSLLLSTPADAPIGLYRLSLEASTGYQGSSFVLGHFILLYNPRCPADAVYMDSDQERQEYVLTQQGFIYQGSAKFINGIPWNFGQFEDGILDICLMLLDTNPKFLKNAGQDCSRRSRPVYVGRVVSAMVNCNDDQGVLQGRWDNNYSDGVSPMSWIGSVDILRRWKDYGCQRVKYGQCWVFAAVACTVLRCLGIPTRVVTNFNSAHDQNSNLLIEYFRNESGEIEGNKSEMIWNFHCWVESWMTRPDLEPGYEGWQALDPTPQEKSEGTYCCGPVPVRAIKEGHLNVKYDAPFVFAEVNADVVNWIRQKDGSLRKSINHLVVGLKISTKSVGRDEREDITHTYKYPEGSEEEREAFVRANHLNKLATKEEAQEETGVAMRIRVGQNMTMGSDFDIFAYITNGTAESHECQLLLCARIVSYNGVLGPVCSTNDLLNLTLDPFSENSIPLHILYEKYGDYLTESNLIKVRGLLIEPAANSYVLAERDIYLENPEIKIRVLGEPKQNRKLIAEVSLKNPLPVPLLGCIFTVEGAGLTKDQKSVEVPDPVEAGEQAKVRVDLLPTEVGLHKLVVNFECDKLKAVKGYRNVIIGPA

## O=C(/C=C/c1ccc([N+](=O)[O-])cc1)c1cn(Cc2ccccc2)nn1 [Compound 4a, (E)-1-(1-benzyl-1H-1,2,3-triazol-4-yl)-3-(4-nitrophenyl)prop-2-en-1-one]
  IC50: < 20 µM
read-out: IC50
  IC50: 4.3 µM

## CCCCCCCCn1cc(C(=O)/C=C/c2ccc([N+](=O)[O-])cc2)nn1 [Compound 4b, (E)-3-(4-nitrophenyl)-1-(1-octyl-1H-1,2,3-triazol-4-yl)prop-2-en-1-one]
  IC50: 20 to 50 µM
read-out: IC50
  IC50: 28.5 µM

## O=C(/C=C/c1ccc([N+](=O)[O-])cc1)c1cn(C2CCCC2)nn1 [Compound 4c, (E)-1-(1-cyclopentyl-1H-1,2,3-triazol-4-yl)-3-(4-nitrophenyl)prop-2-en-1-one]
  IC50: > 50 µM
  TGase inhibitory activity (in words): relatively poor activity
read-out: IC50
  IC50: > 100 µM

## O=C(/C=C/c1ccc([N+](=O)[O-])cc1)c1cn(Cc2ccc([N+](=O)[O-])cc2)nn1 [Compound 4d, (E)-1-(1-(4-nitrobenzyl)-1H-1,2,3-triazol-4-yl)-3-(4-nitrophenyl)prop-2-en-1-one]
  IC50: < 20 µM
  TGase inhibitory activity (in words): most efficient inhibitors in the series
  mode of inhibition: competitive inhibition
read-out: IC50
  IC50: 2.1 µM

## O=C(/C=C/c1ccc([N+](=O)[O-])cc1)c1cn(Cc2ccccn2)nn1 [Compound 4e, (E)-3-(4-nitrophenyl)-1-(1-((pyridin-2-yl)methyl)-1H-1,2,3-triazol-4-yl)prop-2-en-1-one]
  IC50: < 20 µM
  TGase inhibitory activity (in words): lower potency
read-out: IC50
  IC50: 18 µM

## O=C(/C=C/c1ccc([N+](=O)[O-])cc1)c1cn(CC2CCCCC2)nn1 [Compound 4f, (E)-1-(1-(cyclohexylmethyl)-1H-1,2,3-triazol-4-yl)-3-(4-nitrophenyl)prop-2-en-1-one]
  IC50: < 20 µM
  loss in potency (fold): 2.5 fold
read-out: IC50
  IC50: 11 µM

## O=C(/C=C/c1ccc([N+](=O)[O-])cc1)c1cn(Cc2cccc([N+](=O)[O-])c2)nn1 [Compound 4g, (E)-1-(1-(3-nitrobenzyl)-1H-1,2,3-triazol-4-yl)-3-(4-nitrophenyl)prop-2-en-1-one]
  reduction in potency (fold): 4-7 fold
[1]
  IC50: 9.4 µM
[2]
  IC50: < 20 µM

## O=C(/C=C/c1ccc([N+](=O)[O-])cc1)c1cn(Cc2ccccc2[N+](=O)[O-])nn1 [Compound 4h, (E)-1-(1-(2-nitrobenzyl)-1H-1,2,3-triazol-4-yl)-3-(4-nitrophenyl)prop-2-en-1-one]
  reduction in potency (fold): 4-7 fold
[1]
  IC50: 10.7 µM
[2]
  IC50: < 20 µM

## O=C(/C=C/c1ccc([N+](=O)[O-])cc1)c1cn(Cc2c(F)c(F)c(F)c(F)c2F)nn1 [Compound 4i]
  IC50: > 50 µM

## O=C(/C=C/c1ccc([N+](=O)[O-])cc1)c1cn(Cc2cc(C(F)(F)F)cc(C(F)(F)F)c2)nn1 [Compound 4j, (E)-1-(1-(3,5-bis(trifluoromethyl)benzyl)-1H-1,2,3-triazol-4-yl)-3-(4-nitrophenyl)prop-2-en-1-one]
  TGase inhibitory activity (in words): activity was lost
Table 6, Huisgen [3+2] cycloaddition products, read-out: IC50 (μM), class symbol
  IC50: > 50 µM
Table 6, value in brackets, read-out: IC50
  IC50: > 100 µM

## CC(c1ccccc1)n1cc(C(=O)/C=C/c2ccc([N+](=O)[O-])cc2)nn1 (stereo not shown) [Compound 4k, (E)-3-(4-nitrophenyl)-1-(1-(1-phenylethyl)-1H-1,2,3-triazol-4-yl)prop-2-en-1-one]
  IC50: < 20 µM
  loss in potency (fold): 4 fold
read-out: IC50
  IC50: 17 µM

## O=C(/C=C/c1ccc([N+](=O)[O-])cc1)c1cn(C(c2ccccc2)c2ccccc2)nn1 [Compound 4l, (E)-1-(1-benzhydryl-1H-1,2,3-triazol-4-yl)-3-(4-nitrophenyl)prop-2-en-1-one]
  IC50: > 50 µM
  TGase inhibitory activity (in words): relatively poor activity
read-out: IC50
  IC50: > 100 µM

## O=C(/C=C/c1ccc([N+](=O)[O-])cc1)c1cn(Cc2cnn[nH]2)nn1 [Compound 4m, (E)-1-(1-((3H-1,2,3-triazol-4-yl)methyl)-1H-1,2,3-triazol-4-yl)-3-(4-nitrophenyl)prop-2-en-1-one]
  IC50: 20 to 50 µM
  TGase inhibitory activity (in words): relatively higher IC50 value; also recorded: high IC50
read-out: IC50
  IC50: 33 µM

## COc1ccc(Cn2cc(C(=O)/C=C/c3ccc([N+](=O)[O-])cc3)nn2)cc1 [Compound 4n, (E)-1-(1-(4-methoxybenzyl)-1H-1,2,3-triazol-4-yl)-3-(4-nitrophenyl)prop-2-en-1-one]
  IC50: < 20 µM
read-out: IC50
  IC50: 14 µM

## O=C(/C=C/c1ccc([N+](=O)[O-])cc1)c1c[nH]nn1 [Compound 4o, (E)-3-(4-nitrophenyl)-1-(1H-1,2,3-triazol-4-yl)prop-2-en-1-one]
  IC50: 20 to 50 µM
  TGase inhibitory activity (in words): relatively high IC50
read-out: IC50
  IC50: 45 µM

## O=C(C=Cc1ccc([N+](=O)[O-])cc1)On1nnc2ccccc21 [Compound 14a, p-Nitrocinnamoyl oxybenzotriazolyl amide]
  TGase inhibitory activity (in words): Inhibitory activity was observed
[3]
  IC50: 20 to 50 µM
[4]
  IC50: 43 µM
[5]
  IC50: 20 to 50 µM
Versus acyl-donor substrate
  mode of inhibition: competitive inhibition; also recorded: competitive inhibitor

## O=C(C=Cc1cccc([N+](=O)[O-])c1)On1nnc2ccccc21 [Compound 14b, m-Nitrocinnamoyl oxybenzotriazolyl amide]
[3]
  IC50: 20 to 50 µM
[4]
  IC50: 24 µM

## O=C(C=Cc1ccccc1[N+](=O)[O-])On1nnc2ccccc21 [Compound 14c, o-Nitrocinnamoyl oxybenzotriazolyl amide]
[3]
  IC50: > 50 µM
[4]
  IC50: > 100 µM

## O=C(C=Cc1cccc(Cl)c1)On1nnc2ccccc21 [Compound 14l, m-Chlorocinnamoyl oxybenzotriazolyl amide]
[3]
  IC50: 20 to 50 µM
[4]
  IC50: 41 µM
read-out: IC50
  IC50: 41 µM

## COc1ccc(/C=C/C(=O)n2nnc3ccccc32)cc1 [Compound 15d, p-Methoxycinnamoyl benzotriazolyl amide]
[3]
  IC50: > 50 µM
[4]
  IC50: > 100 µM

## COc1cccc(/C=C/C(=O)n2nnc3ccccc32)c1 [Compound 15e, m-Methoxycinnamoyl benzotriazolyl amide]
[3]
  IC50: > 50 µM
[4]
  IC50: > 100 µM

## COc1ccccc1/C=C/C(=O)n1nnc2ccccc21 [Compound 15f, o-Methoxycinnamoyl benzotriazolyl amide]
[3]
  IC50: > 50 µM
[4]
  IC50: > 100 µM

## Cc1ccc(/C=C/C(=O)n2nnc3ccccc32)cc1 [Compound 15g, p-Methylcinnamoyl benzotriazolyl amide]
[3]
  IC50: > 50 µM
[4]
  IC50: > 100 µM

## Cc1cccc(/C=C/C(=O)n2nnc3ccccc32)c1 [Compound 15h, m-Methylcinnamoyl benzotriazolyl amide]
[3]
  IC50: > 50 µM
[4]
  IC50: > 100 µM

## Cc1ccccc1/C=C/C(=O)n1nnc2ccccc21 [Compound 15i, o-Methylcinnamoyl benzotriazolyl amide]
[3]
  IC50: > 50 µM
[4]
  IC50: > 100 µM

## O=C(/C=C/c1ccccc1)n1nnc2ccccc21 [Compound 15j, Cinnamoyl benzotriazolyl amide]
[3]
  IC50: > 50 µM
[4]
  IC50: > 100 µM

## O=C(/C=C/c1ccc(Cl)cc1)n1nnc2ccccc21 [Compound 15k, p-Chlorocinnamoyl benzotriazolyl amide]
[3]
  IC50: > 50 µM
[4]
  IC50: > 100 µM

## O=C(/C=C/c1ccccc1Cl)n1nnc2ccccc21 [Compound 15m, o-Chlorocinnamoyl benzotriazolyl amide]
[3]
  IC50: > 50 µM
[4]
  IC50: > 100 µM

## CC(C)(C)OC(=O)Nc1ccc(C=CC(=O)n2nnc3ccccc32)cc1 [Compound 15n, p-(tert-Butoxycarbonylamino)cinnamoyl benzotriazolyl amide]
[3]
  IC50: < 20 µM
[4]
  IC50: 18 µM

## CC(C)(C)OC(=O)Nc1cccc(C=CC(=O)n2nnc3ccccc32)c1 [Compound 15o, m-(tert-Butoxycarbonylamino)cinnamoyl benzotriazolyl amide]
[3]
  IC50: 20 to 50 µM
[4]
  IC50: 39 µM

## O=C(Nc1ccc(C=CC(=O)n2nnc3ccccc32)cc1)OCC1c2ccccc2-c2ccccc21 [Compound 15p, p-(9-Fluorenylmethoxycarbonylamino)cinnamoyl benzotriazolyl amide]
[3]
  IC50: 20 to 50 µM
[4]
  IC50: 25 µM

## COC(=O)c1ccc(/C=C/C(=O)n2nnc3ccccc32)cc1 [Compound 15q, p-(Methoxycarbonyl)cinnamoyl benzotriazolyl amide]
[3]
  IC50: 20 to 50 µM
[4]
  IC50: 27 µM

## O=C(C=Cc1ccc([N+](=O)[O-])cc1)On1nnc2cccnc21 [Compound 16a, p-Nitrocinnamoyl oxyazabenzotriazolyl amide]
  TGase inhibitory activity (in words): Inhibitory activity was observed
[5]
  IC50: 20 to 50 µM

## O=C(/C=C/c1ccc([N+](=O)[O-])cc1)OCc1ccccc1 [Compound 19a, p-Nitrocinnamoyl benzyl ester]
  TGase inhibitory activity (in words): little inhibitory activity
[5]
  IC50: > 50 µM

## CC(C)(C)OC(=O)/C=C/c1ccc([N+](=O)[O-])cc1 [Compound 20a, p-Nitrocinnamoyl t-butyl ester]
  TGase inhibitory activity (in words): little inhibitory activity
[5]
  IC50: > 50 µM
